From US4647687A, “Halogenated sulphides, process for their preparation and their use in microbicidal agents” (Bayer Aktiengesellschaft, priority 1983, dated 1987)
Converted amounts (≈) assume the structure as drawn. Where two headings read alike, the source gives them in different places.

What was measured:
[1] = system: slime organisms; assay: Action against slime organisms (MIC in Allen's nutrient solution); format: cell-based; details: 336 h, about 10^6 germs/ml, 3 weeks at room temperature
[2] = system: Staphylococcus aureus; assay: Action against bacteria (MIC in broth agar); format: cell-based; details: 28° C., 60 to 70% relative humidity, 2 weeks
[3] = system: Sclerophoma pityophila; assay: MIC against fungi, beerwort/peptone agar; details: 28° C., 60 to 70% relative humidity, 2 weeks
[4] = system: Chaetomium globosum; assay: MIC against fungi, beerwort/peptone agar; details: 28° C., 60 to 70% relative humidity, 2 weeks
[5] = system: Aspergillus niger; assay: MIC against fungi, beerwort/peptone agar; details: 28° C., 60 to 70% relative humidity, 2 weeks
[6] = system: Eschercihia coli; assay: Action against bacteria (MIC in broth agar); format: cell-based; details: Escherichia coli, 28° C., 60 to 70% relative humidity, 2 weeks
[7] = system: Trichoderma viride; assay: MIC against fungi, beerwort/peptone agar
[8] = system: Coniophora puteana; assay: MIC against fungi, beerwort/peptone agar; details: 28° C., 60 to 70% relative humidity, 2 weeks
[9] = system: Lentinus tigrinus; assay: MIC against fungi, beerwort/peptone agar; details: 28° C., 60 to 70% relative humidity, 2 weeks
[10] = system: Polyporus versicolor; assay: MIC against fungi, beerwort/peptone agar
[11] = system: Penicillium glaucum; assay: MIC against fungi, beerwort/peptone agar; details: 28° C., 60 to 70% relative humidity, 2 weeks
[12] = system: Alternaria tenuis; assay: MIC against fungi, beerwort/peptone agar; details: 28° C., 60 to 70% relative humidity, 2 weeks
[13] = system: Aureobasidium pullulans; assay: MIC against fungi, beerwort/peptone agar
[14] = system: microbes (bacteria, yeasts and moulds) isolated from microbially decayed cooling lubricant use dilutions; assay: Testing as a preservative for cooling lubricants; details: 1% active compound in mineral oil cooling lubricant; 5% strength use dilutions contaminated daily for 3 months
Experimental: 1% of the active compound is added, as a preservative, to a cooling lubricant based on mineral oil. 5% strength use dilutions of the cooling lubricant are massively contaminated daily for 3 months with microbes (bacteria, yeasts and moulds) isolated from microbially decayed cooling lubricant use dilutions.

[15] = 28° C., 60 to 70% relative humidity, 2 weeks

| MIC [1] [µg/mL] | MIC ([2]; 336 h, read-out: MIC) [µg/mL] | MIC ([3]; Sydowia polyspora, 336 h) [µg/mL] | MIC ([4]; 336 h) [µg/mL] | MIC ([5]; 336 h) [µg/mL] | MIC ([6]; 336 h, read-out: MIC) [µg/mL] | MIC ([7]; 336 h) [µg/mL] | MIC ([9]; 336 h) [µg/mL] | MIC ([10]; Trametes versicolor, 336 h) [µg/mL] | MIC ([11]; Penicillium, 336 h) [µg/mL] | MIC ([13]; 336 h) [µg/mL] | MIC [8] [µg/mL] | MIC [11] [µg/mL] | MIC [12] [µg/mL] | SMILES | further results |
| --- | --- | --- | --- | --- | --- | --- | --- | --- | --- | --- | --- | --- | --- | --- | --- |
| – | < 20 | 0.5 (≈ 1.83 µM) | 2 (≈ 7.3 µM) | 2 (≈ 7.3 µM) | 50 (≈ 183 µM) | 10 (≈ 36.5 µM) | 0.5 (≈ 1.83 µM) | 1 (≈ 3.65 µM) | – | 1 (≈ 3.65 µM) | < 0.1 | 1 (≈ 3.65 µM) | 2 (≈ 7.3 µM) | N#CC(Cl)=C(Cl)SC(Cl)=C(Cl)C#N [Example 8, bis-(1,2-dichloro-2-cyano-vinyl) sulphide] | – |
| – | – | – | – | – | – | – | – | – | – | – | 0.5 (≈ 1.83 µM) | 2.5 (≈ 9.13 µM) | 0.75 (≈ 2.74 µM) | N#CC(Cl)=C(Cl)SC(Cl)=C(Cl)C#N [Example 9, bis-(1,2-dichloro-2-cyano-vinyl) sulphide] | MIC [7, 15]: 10 µg/mL (≈ 36.5 µM); MIC [2]: 10 µg/mL (≈ 36.5 µM); MIC [9]: 1 µg/mL (≈ 3.65 µM); MIC [3]: 0.75 µg/mL (≈ 2.74 µM); MIC ([10]; Polyporus versicolor, 28° C., 60 to 70% relative humidity, 2 weeks): 1 µg/mL (≈ 3.65 µM); MIC [13, 15]: 1 µg/mL (≈ 3.65 µM); MIC [4]: 2.5 µg/mL (≈ 9.13 µM); MIC [5]: 2.5 µg/mL (≈ 9.13 µM); MIC [6]: 25 µg/mL (≈ 91.3 µM) |
| – | 500 (≈ 2200 µM) | – | 50 (≈ 220 µM) | 50 (≈ 220 µM) | 200 (≈ 878 µM) | – | – | – | 35 (≈ 154 µM) | – | – | – | – | N#CC(Cl)=CS(=O)(=O)c1ccccc1 [α-Chloro-β-phenylsulphonyl-acrylonitrile, α-Chloro-β-phenylsulphonyl acrylonitrile, reference compound] | – |

Continued, molecule first:

| SMILES | MIC [1] [µg/mL] | MIC ([2]; 336 h, read-out: MIC) [µg/mL] | MIC ([3]; Sydowia polyspora, 336 h) [µg/mL] | MIC ([4]; 336 h) [µg/mL] | MIC ([5]; 336 h) [µg/mL] | MIC ([6]; 336 h, read-out: MIC) [µg/mL] | MIC ([7]; 336 h) [µg/mL] | MIC ([9]; 336 h) [µg/mL] | MIC ([10]; Trametes versicolor, 336 h) [µg/mL] | MIC ([11]; Penicillium, 336 h) [µg/mL] | MIC ([13]; 336 h) [µg/mL] | MIC [8] [µg/mL] | MIC [11] [µg/mL] | MIC [12] [µg/mL] | further results |
| --- | --- | --- | --- | --- | --- | --- | --- | --- | --- | --- | --- | --- | --- | --- | --- |
| N#CC=C(Cl)SCCC#N [Example 1, 1-chloro-2-cyanovinyl 2-cyano-ethyl sulphide] | 0.15 (≈ 0.869 µM) | – | – | – | – | – | – | – | – | – | – | – | – | – | – |
| N#CCCSC(Cl)=C(Cl)C#N [Example 2, 1,2-dichloro-2-cyano-vinyl 2-cyano-ethyl sulphide] | 2 (≈ 9.66 µM) | 35 (≈ 169 µM) | 20 (≈ 96.6 µM) | < 20 | < 20 | 200 (≈ 966 µM) | – | – | – | – | – | – | – | – | – |
| N#CC(Cl)=CSC(Cl)=C(Cl)C#N [Example 5, 1,2-dichloro-2-cyano-vinyl 2-chloro-2-cyano-vinyl sulphide] | 0.35 (≈ 1.46 µM) | 10 (≈ 41.8 µM) | 0.5 (≈ 2.09 µM) | 2 (≈ 8.35 µM) | 2 (≈ 8.35 µM) | 20 (≈ 83.5 µM) | 10 (≈ 41.8 µM) | 0.5 (≈ 2.09 µM) | 1 (≈ 4.18 µM) | 1 (≈ 4.18 µM) | 5 (≈ 20.9 µM) | – | – | – | MIC ([8]; 336 h): < 0.1 µg/mL; MIC ([12]; Alternaria alternata, 336 h): 20 µg/mL (≈ 83.5 µM); state of the use dilutions at the end of the testing period [14]: free from germs |
